Data published in patent publication US10072029B2, “Crystalline form of a proteasome inhibitor” (Millennium Pharmaceuticals, Inc., priority 2015, dated 2018).

Tests used:
[1] = Chemical stability assessment, 60/75 stress test, HPLC; format: physicochemical
Description: The chemical stability assessment was performed on crystalline Pattern B using a 60/75 stress test (The International Conference on Harmonisation of Technical Requirements for Registration of Pharmaceuticals for Human Use, Stability Testing of New Drug Substances and Products, Q1A(R2), 2003). Samples were exposed to 60° C./75% relative humidity condition for 2 weeks and post-stress materials were analyzed by HPLC. Data at time-zero was also collected for all samples and served as references. The following table summarizes stability data obtained (peak area % measured by HPLC) for crystalline Pattern B.

[2] = target: β2 site of the 20S proteasome (Homo sapiens, UniProt Q99436); conditions: at higher concentrations; cited from earlier work
receptors = conditions: panel of receptors; cited from earlier work
[3] = target: β1 site of the 20S proteasome (Homo sapiens, UniProt P28072); conditions: at higher concentrations; cited from earlier work
kinases = conditions: panel of kinases; cited from earlier work

SMILES	% at 1 wk (peak area % measured by HPLC) ([1]; 60° C./75% relative humidity, 1 wk)	% at 2 wk (peak area % measured by HPLC) ([1]; 60° C./75% relative humidity, 2 wk)	% at t0 (peak area % measured by HPLC) ([1]; time-zero reference)	inhibition of the activity of the β2 site [2]	IC50 (receptors)	inhibition of the activity of the β1 site [3]	IC50 (kinases)
CC(C)C[C@H](NC(=O)CNC(=O)c1cc(Cl)ccc1Cl)B1OB([C@H](CC(C)C)NC(=O)CNC(=O)c2cc(Cl)ccc2Cl)OB([C@H](CC(C)C)NC(=O)CNC(=O)c2cc(Cl)ccc2Cl)O1 [Crystalline Pattern B, N,N′,N″-[2,4,6-boroxintriyltris[[(1R)-3-methylbutylidene]imino(2-oxo-2,1-ethanediyl)]]tris(2,5-dichlorobenzamide)]	94.2%	79.5%	99.3%				
CC(C)C[C@H](NC(=O)CNC(=O)c1cc(Cl)ccc1Cl)B(O)O [Ixazomib, [(1R)-1-({[(2,5-dichlorobenzoyl)amino]acetyl}amino)-3-methylbutyl]boronic acid]				inhibits the activity	> 10 µM	inhibits the activity	> 10 µM
